Results reported in ChEMBL document CHEMBL1145498, “A systematic interaction map of validated kinase inhibitors with Ser/Thr kinases” (Proc Natl Acad Sci U S A, 2007).

Assays:
[1] = target: Dual specificity protein kinase CLK3 (Homo sapiens) (UniProt P49761)
[2] = target: Casein kinase I isoform gamma-3 (Homo sapiens) (UniProt Q9Y6M4)
[3] = target: Dual specificity protein kinase CLK1 (Homo sapiens) (UniProt P49759)
[4] = target: Calcium/calmodulin-dependent protein kinase type 1D (Homo sapiens) (UniProt Q8IU85)
[5] = target: TRAF2 and NCK-interacting protein kinase (Homo sapiens) (UniProt Q9UKE5)
[6] = target: Casein kinase I isoform gamma-1 (Homo sapiens) (UniProt Q9HCP0)
[7] = target: T1, Mitogen-activated protein kinase kinase kinase 5 (Homo sapiens) (UniProt Q99683)
T1 sequence (whole entry): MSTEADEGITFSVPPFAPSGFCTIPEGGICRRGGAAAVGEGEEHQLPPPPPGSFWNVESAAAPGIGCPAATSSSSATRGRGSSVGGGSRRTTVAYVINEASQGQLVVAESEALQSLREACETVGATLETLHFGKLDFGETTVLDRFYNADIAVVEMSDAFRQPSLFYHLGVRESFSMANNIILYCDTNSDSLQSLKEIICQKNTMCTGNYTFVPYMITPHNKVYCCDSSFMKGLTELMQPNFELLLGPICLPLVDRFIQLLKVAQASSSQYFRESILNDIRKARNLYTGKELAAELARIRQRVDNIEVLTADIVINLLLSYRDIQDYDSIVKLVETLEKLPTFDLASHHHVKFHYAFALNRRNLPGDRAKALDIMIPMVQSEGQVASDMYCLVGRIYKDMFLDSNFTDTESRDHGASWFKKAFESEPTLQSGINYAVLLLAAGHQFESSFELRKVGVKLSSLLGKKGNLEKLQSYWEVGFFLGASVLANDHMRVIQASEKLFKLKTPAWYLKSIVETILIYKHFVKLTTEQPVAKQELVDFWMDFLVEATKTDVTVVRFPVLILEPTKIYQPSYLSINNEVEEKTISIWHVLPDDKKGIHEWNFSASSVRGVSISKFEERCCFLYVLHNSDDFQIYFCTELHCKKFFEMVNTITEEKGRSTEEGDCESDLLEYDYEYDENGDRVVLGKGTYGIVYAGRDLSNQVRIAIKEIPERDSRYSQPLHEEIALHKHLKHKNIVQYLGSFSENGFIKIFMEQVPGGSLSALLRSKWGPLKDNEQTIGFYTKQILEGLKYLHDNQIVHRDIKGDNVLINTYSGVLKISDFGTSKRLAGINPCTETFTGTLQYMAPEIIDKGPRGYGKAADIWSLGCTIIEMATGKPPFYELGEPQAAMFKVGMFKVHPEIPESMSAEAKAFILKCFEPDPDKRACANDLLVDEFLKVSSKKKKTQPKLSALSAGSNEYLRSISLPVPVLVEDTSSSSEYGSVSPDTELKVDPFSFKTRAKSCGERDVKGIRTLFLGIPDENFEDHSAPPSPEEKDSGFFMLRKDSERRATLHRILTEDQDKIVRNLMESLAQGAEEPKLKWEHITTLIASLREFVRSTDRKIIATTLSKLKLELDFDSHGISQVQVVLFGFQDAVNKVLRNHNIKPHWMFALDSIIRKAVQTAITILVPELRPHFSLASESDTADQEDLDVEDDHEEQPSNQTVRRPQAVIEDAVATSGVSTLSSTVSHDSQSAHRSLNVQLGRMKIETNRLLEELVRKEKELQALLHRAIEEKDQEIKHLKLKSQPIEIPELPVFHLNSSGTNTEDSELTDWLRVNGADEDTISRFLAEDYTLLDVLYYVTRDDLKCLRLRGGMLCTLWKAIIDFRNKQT

[8] = target: Ribosomal protein S6 kinase alpha-3 (Homo sapiens) (UniProt P51812)
[9] = target: 5'-AMP-activated protein kinase catalytic subunit alpha-2 (Homo sapiens) (UniProt P54646)
[10] = target: Glycogen synthase kinase-3 beta (Homo sapiens, UniProt P49841)
[11] = target: T2, Lymphokine-activated killer T-cell-originated protein kinase (Homo sapiens) (UniProt Q96KB5)
T2 sequence (whole entry): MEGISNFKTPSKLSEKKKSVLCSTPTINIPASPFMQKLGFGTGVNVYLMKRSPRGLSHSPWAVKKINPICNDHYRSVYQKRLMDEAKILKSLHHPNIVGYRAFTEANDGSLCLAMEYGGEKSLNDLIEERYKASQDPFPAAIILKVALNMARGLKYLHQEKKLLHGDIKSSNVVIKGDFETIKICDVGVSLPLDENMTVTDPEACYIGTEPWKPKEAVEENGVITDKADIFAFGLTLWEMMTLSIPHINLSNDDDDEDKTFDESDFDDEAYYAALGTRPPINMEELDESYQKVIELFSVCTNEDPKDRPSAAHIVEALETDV

[12] = target: Dual specificity protein kinase CLK2 (Homo sapiens) (UniProt P49760)
[13] = target: Serine/threonine-protein kinase PAK 6 (Homo sapiens) (UniProt Q9NQU5)
[14] = target: Serine/threonine-protein kinase OSR1 (Homo sapiens) (UniProt O95747)
[15] = target: Calcium/calmodulin-dependent protein kinase type II subunit alpha (Homo sapiens) (UniProt Q9UQM7)
[16] = target: Cyclin-dependent kinase 6 (Homo sapiens) (UniProt Q00534)
[17] = target: Death-associated protein kinase 3 (Homo sapiens) (UniProt O43293)
[18] = target: Casein kinase I isoform gamma-2 (Homo sapiens) (UniProt P78368)
[19] = target: Mitogen-activated protein kinase 6 (Homo sapiens) (UniProt Q16659)
[20] = target: Cyclin-dependent kinase 2 (Homo sapiens, UniProt P24941)

Chain of Casein kinase I isoform gamma-2 (Homo sapiens) (P78368 whole entry, looked up, canonical isoform): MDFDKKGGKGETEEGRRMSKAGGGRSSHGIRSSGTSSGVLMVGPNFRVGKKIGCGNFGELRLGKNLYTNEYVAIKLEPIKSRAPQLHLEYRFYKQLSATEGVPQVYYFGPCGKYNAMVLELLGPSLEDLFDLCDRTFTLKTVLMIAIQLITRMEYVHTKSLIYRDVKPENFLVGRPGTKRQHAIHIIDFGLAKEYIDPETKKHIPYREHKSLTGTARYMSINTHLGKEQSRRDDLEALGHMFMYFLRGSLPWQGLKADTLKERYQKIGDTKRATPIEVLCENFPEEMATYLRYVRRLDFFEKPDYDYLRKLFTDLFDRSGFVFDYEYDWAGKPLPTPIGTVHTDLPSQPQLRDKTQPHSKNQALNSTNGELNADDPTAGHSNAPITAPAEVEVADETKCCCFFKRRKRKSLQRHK
Chain of Death-associated protein kinase 3 (Homo sapiens) (O43293 whole entry, looked up, canonical isoform): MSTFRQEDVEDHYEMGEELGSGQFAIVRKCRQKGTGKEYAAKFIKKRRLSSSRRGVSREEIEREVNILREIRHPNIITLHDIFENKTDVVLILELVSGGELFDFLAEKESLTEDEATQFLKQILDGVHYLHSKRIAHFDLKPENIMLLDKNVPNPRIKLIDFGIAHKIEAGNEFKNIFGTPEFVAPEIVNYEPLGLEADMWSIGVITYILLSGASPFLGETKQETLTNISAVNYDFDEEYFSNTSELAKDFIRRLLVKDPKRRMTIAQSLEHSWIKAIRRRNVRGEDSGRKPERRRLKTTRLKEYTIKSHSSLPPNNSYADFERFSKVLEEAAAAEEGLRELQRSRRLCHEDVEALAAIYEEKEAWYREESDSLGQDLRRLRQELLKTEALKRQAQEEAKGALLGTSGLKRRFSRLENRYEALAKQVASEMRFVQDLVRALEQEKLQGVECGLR
Chain of 5'-AMP-activated protein kinase catalytic subunit alpha-2 (Homo sapiens) (P54646 whole entry, looked up): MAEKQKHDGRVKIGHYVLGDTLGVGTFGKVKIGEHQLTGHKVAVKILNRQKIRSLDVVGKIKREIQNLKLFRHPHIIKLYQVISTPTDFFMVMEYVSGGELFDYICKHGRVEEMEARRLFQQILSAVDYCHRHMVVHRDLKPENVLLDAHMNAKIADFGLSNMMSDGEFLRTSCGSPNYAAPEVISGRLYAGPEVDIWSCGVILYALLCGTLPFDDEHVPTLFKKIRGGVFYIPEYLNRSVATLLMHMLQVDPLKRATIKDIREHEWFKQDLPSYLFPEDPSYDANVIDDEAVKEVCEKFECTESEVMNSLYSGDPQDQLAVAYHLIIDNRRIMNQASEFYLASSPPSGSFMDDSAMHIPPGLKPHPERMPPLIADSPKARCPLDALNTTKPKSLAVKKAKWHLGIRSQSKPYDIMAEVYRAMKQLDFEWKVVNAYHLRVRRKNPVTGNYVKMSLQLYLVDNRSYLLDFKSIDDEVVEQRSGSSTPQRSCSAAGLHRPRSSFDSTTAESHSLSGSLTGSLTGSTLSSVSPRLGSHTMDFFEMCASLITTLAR
Chain of Glycogen synthase kinase-3 beta (P49841 whole entry, looked up): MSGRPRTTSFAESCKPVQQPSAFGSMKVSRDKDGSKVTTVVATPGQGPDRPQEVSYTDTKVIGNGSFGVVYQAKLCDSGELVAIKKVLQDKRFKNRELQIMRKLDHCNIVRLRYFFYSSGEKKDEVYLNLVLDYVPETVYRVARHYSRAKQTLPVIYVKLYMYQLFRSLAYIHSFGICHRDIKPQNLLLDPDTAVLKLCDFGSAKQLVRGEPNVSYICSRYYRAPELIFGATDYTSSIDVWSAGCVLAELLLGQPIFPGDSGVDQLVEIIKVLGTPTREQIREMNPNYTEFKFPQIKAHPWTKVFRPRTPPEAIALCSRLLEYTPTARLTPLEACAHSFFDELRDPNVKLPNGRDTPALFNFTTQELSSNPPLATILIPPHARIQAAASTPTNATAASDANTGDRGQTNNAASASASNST
Chain of Cyclin-dependent kinase 6 (Homo sapiens) (Q00534 whole entry): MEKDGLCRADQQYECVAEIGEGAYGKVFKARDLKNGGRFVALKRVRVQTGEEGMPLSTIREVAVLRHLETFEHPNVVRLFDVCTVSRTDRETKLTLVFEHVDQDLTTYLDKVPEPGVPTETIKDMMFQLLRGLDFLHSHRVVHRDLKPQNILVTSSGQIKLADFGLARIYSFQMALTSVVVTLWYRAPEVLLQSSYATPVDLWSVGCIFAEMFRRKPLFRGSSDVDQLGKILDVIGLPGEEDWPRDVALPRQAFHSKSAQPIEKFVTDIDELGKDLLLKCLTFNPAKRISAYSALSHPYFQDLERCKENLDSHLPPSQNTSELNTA
Chain of Mitogen-activated protein kinase 6 (Homo sapiens) (Q16659 whole entry): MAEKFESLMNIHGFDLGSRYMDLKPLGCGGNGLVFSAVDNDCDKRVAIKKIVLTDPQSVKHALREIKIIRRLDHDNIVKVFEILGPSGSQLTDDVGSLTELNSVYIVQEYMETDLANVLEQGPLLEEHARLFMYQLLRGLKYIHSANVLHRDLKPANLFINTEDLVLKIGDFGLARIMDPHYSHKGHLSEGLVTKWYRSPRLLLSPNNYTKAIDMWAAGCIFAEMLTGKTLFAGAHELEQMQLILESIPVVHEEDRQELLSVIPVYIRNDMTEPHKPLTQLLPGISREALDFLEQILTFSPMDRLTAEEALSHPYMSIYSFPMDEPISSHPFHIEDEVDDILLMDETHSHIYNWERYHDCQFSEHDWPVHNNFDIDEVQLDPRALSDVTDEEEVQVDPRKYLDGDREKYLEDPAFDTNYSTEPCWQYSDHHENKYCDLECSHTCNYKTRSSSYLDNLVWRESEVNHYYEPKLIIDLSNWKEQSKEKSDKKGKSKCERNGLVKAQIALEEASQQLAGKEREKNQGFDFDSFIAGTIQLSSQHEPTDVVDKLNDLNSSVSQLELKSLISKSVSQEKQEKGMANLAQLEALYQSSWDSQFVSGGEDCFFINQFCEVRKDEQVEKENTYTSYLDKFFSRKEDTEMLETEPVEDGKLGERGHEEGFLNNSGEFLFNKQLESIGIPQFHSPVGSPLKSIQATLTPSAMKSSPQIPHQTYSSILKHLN
Chain of Serine/threonine-protein kinase OSR1 (Homo sapiens) (O95747 2-527 limits assumed): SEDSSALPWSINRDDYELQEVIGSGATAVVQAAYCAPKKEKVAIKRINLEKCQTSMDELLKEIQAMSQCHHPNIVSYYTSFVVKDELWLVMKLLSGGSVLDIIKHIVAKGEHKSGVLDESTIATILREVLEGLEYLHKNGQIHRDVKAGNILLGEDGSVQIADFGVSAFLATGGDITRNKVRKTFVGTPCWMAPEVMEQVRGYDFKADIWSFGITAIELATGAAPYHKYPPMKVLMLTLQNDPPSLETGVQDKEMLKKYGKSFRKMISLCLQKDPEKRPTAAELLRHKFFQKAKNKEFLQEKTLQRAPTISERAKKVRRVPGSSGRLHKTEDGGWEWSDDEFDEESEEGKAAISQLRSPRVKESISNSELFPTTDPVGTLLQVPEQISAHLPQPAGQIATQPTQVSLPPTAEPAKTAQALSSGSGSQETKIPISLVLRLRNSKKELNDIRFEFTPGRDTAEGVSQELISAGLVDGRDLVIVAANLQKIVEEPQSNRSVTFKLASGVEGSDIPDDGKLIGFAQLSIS
Chain of Dual specificity protein kinase CLK2 (Homo sapiens) (P49760 whole entry, looked up): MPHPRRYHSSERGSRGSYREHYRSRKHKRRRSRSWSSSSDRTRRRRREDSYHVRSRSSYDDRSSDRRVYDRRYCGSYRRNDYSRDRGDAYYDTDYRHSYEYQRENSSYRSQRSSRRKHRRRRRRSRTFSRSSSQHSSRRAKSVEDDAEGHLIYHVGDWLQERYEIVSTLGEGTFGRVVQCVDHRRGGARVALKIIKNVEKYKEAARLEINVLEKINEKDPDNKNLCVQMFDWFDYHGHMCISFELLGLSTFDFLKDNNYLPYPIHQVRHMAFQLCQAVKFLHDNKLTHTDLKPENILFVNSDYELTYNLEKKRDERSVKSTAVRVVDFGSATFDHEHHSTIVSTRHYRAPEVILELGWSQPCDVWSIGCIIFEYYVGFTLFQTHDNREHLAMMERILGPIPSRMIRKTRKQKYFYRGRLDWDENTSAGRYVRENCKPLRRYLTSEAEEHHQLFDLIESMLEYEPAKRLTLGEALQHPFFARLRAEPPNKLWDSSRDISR
Chain of Dual specificity protein kinase CLK1 (Homo sapiens) (P49759 whole entry, looked up): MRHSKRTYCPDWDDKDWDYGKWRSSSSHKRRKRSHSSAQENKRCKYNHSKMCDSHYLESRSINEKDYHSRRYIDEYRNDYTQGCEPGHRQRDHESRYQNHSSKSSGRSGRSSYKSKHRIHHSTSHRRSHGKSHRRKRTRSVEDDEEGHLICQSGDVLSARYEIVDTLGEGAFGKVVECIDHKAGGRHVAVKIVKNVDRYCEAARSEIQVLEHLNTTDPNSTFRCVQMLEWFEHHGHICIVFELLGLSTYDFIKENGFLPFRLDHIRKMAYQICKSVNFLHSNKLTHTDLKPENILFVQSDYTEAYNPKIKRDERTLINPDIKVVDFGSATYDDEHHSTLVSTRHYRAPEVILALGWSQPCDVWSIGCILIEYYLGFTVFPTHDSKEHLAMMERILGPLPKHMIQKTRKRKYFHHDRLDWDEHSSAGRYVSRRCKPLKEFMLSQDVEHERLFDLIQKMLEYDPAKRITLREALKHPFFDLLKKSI
Chain of Calcium/calmodulin-dependent protein kinase type II subunit alpha (Homo sapiens) (Q9UQM7 whole entry): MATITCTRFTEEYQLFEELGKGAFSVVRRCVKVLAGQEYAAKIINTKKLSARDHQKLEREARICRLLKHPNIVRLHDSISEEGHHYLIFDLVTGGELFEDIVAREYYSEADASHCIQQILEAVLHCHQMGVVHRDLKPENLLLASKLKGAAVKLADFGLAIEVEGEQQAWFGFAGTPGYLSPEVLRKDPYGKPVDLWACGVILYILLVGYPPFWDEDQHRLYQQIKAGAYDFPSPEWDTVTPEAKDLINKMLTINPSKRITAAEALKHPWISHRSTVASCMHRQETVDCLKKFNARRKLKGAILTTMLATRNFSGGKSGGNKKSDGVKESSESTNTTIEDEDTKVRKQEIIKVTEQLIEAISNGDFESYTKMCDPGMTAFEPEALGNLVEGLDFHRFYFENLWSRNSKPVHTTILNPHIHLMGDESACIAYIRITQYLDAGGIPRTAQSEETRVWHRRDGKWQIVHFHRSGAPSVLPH

| ΔTm [1] [°C] | ΔTm [2] [°C] | ΔTm [3] [°C] | ΔTm [4] [°C] | ΔTm [5] [°C] | ΔTm [6] [°C] | ΔTm [7] [°C] | ΔTm [8] [°C] | ΔTm [9] [°C] | ΔTm [10] [°C] | ΔTm [12] [°C] | ΔTm [13] [°C] | ΔTm [14] [°C] | ΔTm [15] [°C] | ΔTm [16] [°C] | ΔTm [18] [°C] | ΔTm [19] [°C] | ΔTm [20] [°C] | SMILES | ΔTm [11] [°C] | ΔTm [17] [°C] |
| --- | --- | --- | --- | --- | --- | --- | --- | --- | --- | --- | --- | --- | --- | --- | --- | --- | --- | --- | --- | --- |
| 1.5 | 0.4 | 1.7 | -0.3 | -0.3 | 0.6 | 0.8 | -0.6 | -0.7 | 7.1 | 1.7 | 0.2 | -0.7 | -0.6 | -0.2 | 0.5 | -0.2 | -0.3 | Ic1cccc(CSc2nnc(-c3ccncc3)o2)c1 | 0.3 | 0.2 |
| 7.3 | 2.7 | 9.5 | 0.2 | 1.6 | 2.5 | 0.9 | 1.7 | 1 | 2 | 5.6 | 1.1 | 2.4 | 0.7 | -0.2 | 3.7 | -0.1 | 2.9 | Nc1ncnc2c1c(I)cn2[C@@H]1O[C@H](CO)[C@@H](O)[C@H]1O | 0 | 2.9 |
| 0.8 | 0.3 | 0.7 | 0.4 | -1 | 0.5 | 0.1 | 1.3 | -0.3 | 0.9 | 0 | 0 | 0.2 | 0.3 | 0.6 | -0.2 | 0.8 | 0 | COc1cc2ncnc(Nc3ccc(F)c(Cl)c3)c2cc1OCCCN1CCOCC1 | 0.6 | 3.2 |
| 1 | 1.6 | 1.1 | 0.7 | 0.4 | 0.8 | 0.6 | 0.2 | 1.6 | 1.1 | 0.5 | -0.9 | -0.2 | 0.8 | 0.1 | 0.3 | 1.7 | 0.7 | O=c1c(-c2ccc(O)cc2)coc2cc(O)cc(O)c12 | 0.7 | 0.5 |
| 0.1 | 2.4 | 1.3 | -0.2 | -0.9 | 3 | 0.3 | 0.8 | 0.4 | 0.9 | 0.3 | -0.5 | 0.3 | 0.4 | 0.3 | 2 | 0.3 | -0.8 | Nc1nccc(-c2c(-c3ccc(F)cc3)ncn2C2CCNCC2)n1 | 0.5 | 0.8 |
| 1.6 | 0.4 | 2.2 | 0.6 | 0.5 | 0.3 | 0.4 | 0.9 | -0.9 | 1.2 | 1.6 | 0.3 | 1 | 0 | 0.8 | 0.4 | 0.6 | 1.4 | Nc1cc2ncnc(Nc3cccc(Br)c3)c2cc1N | -0.2 | 2.1 |

Further lines, the molecule ahead of its results:

| SMILES | ΔTm [1] [°C] | ΔTm [2] [°C] | ΔTm [3] [°C] | ΔTm [4] [°C] | ΔTm [5] [°C] | ΔTm [6] [°C] | ΔTm [7] [°C] | ΔTm [8] [°C] | ΔTm [9] [°C] | ΔTm [10] [°C] | ΔTm [12] [°C] | ΔTm [13] [°C] | ΔTm [14] [°C] | ΔTm [15] [°C] | ΔTm [16] [°C] | ΔTm [18] [°C] | ΔTm [19] [°C] | ΔTm [20] [°C] | ΔTm [11] [°C] | ΔTm [17] [°C] |
| --- | --- | --- | --- | --- | --- | --- | --- | --- | --- | --- | --- | --- | --- | --- | --- | --- | --- | --- | --- | --- |
| Cn1cc(/C=C2/C(=O)Nc3ccc(S(N)(=O)=O)cc32)c2ccccc21 | 3.2 | 0.2 | 4.7 | 2 | 1.3 | -0.9 | 1 | 7.8 | 8.3 | 11.6 | 3.6 | -0.6 | 3.7 | 2.7 | -0.2 | 0.5 | 5.5 | 1.3 | -1.2 | 0.3 |
| O=C(O)Cc1ccc(O)c([N+](=O)[O-])c1 | -0.6 | 0.5 | -0.6 | 0 | -0.2 | 0.3 | -0.7 | -0.1 | 0.1 | 0.6 | 0.5 | -0.9 | 0 | 1.4 | 0.1 | 1 | 0.8 | 1.1 | 0.6 | 0.5 |
| O=C1C=C2C(=Nc3c2c2c(c4c3=NC3=C4CCC=C3)C=NC=2)CC1 | 2.3 | 0.8 | 3.1 | 3.6 | 1.3 | 0.9 | 5.7 | 4.4 | -0.2 | 2.3 | 4.2 | 3.1 | 2.1 | 3.7 | 2.7 | 1.4 | 1.4 | 4 | 0.9 | 3.8 |
| CN(C)c1ccc(CC2C(=O)Nc3ccccc32)cc1 (stereo not given) | 0.1 | 0.8 | 2 | 0 | 4.1 | 1.2 | 1.1 | 3.6 | 0.3 | 1.2 | 1.7 | 0.1 | -0.6 | -0.3 | 0.8 | 0.8 | 0.1 | 1 | 0.1 | -0.8 |
| Cn1cc(C2=C(c3cn(CCCSC(=N)N)c4ccccc34)C(=O)NC2=O)c2ccccc21 | 4.1 | 1 | 9.6 | 2 | 3.8 | 0.6 | 0.3 | 10 | 2.1 | 12.8 | 5.1 | 3.1 | -0.5 | 4.2 | 3.2 | 0.7 | 0 | 8.4 | -0.1 | 1.5 |
